Counter-ions that a name gives are not always drawn.
Assays:
[1] = Polymorphic stability on exposure to ethanol or methanol vapors; format: physicochemical; conditions: exposed to ethanol or methanol vapors, about RT, about 1 hour to about 24 hours
From the text: As discussed above, Nilotinib HBr form XI has advantageous properties. In particular, the crystalline Nilotinib HBr form XI of the present invention is polymorphically stable. […] This stability is an advantage for the production, storage and processing of pharmaceuticals comprising Nilotinib HBr.

[2] = Thermal polymorphic stability (heating of the crystalline form); format: physicochemical; conditions: heated up to 200° C.
From the text: As discussed above, Nilotinib L-tartrate Form IV has advantageous properties.

Compound | polymorphic stability (conversion to other forms of Nilotinib HBr) [1] | thermal polymorphic stability (conversion to other forms) [2]
Cc1cn(-c2cc(NC(=O)c3ccc(C)c(Nc4nccc(-c5cccnc5)n4)c3)cc(C(F)(F)F)c2)cn1 [Nilotinib HBr form XI, Nilotinib hydrobromide] | does not convert to other forms of Nilotinib HBr | 
Nilotinib L-tartrate [Nilotinib L-tartrate Form IV] |  | does not convert to other forms

From patent US20130158059A1, “NILOTINIB SALTS AND CRYSTALLINE FORMS THEREOF” (TEVA PHARMACEUTICAL INDUSTRIES LTD., priority 2010, published 2013)
